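Compound exposure: 48 hours, 5 concentrations, 96-well plates. TGI marks complete inhibition of growth.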 Where a SMILES comes first, the peptide text is derived from it. [ ]: non-standard residue; d: D form. The star is where a group is joined. Phe(4-NO2) = N[CH](Cc1ccc([N+](=O)[O-])cc1)C(=O)O; Cbz = O=C(OCc1ccccc1)*
What was measured:
Assay in all cases: growth of human tumour cells (NCI), 48 h
786-0 renal = tested on: 786-0 renal
ACHN renal = tested on: ACHN renal
CAKI-1 renal = tested on: CAKI-1 renal
DU-145 prostate = tested on: DU-145 prostate
HOP-62 NSCLC = tested on: HOP-62 NSCLC
HS 578T breast = tested on: HS 578T breast
M14 melanoma = tested on: M14 melanoma
MCF7 breast = tested on: MCF7 breast
MDA-MB-231 breast = tested on: MDA-MB-231 breast
NCI-H522 lung = tested on: NCI-H522 lung
OVCAR-3 ovarian = tested on: OVCAR-3 ovarian
OVCAR-4 ovarian = tested on: OVCAR-4 ovarian
RXF 393 renal = tested on: RXF 393 renal
SF-295 CNS = tested on: SF-295 CNS
SF-539 CNS = tested on: SF-539 CNS
SK-OV-3 ovarian = tested on: SK-OV-3 ovarian
SN12C renal = tested on: SN12C renal
SNB-75 CNS = tested on: SNB-75 CNS
U251 CNS = tested on: U251 CNS
CCRF-CEM leukemia = tested on: CCRF-CEM leukemia

| Compound | TGI (786-0 renal) [µM] | TGI (ACHN renal) [µM] | TGI (CAKI-1 renal) [µM] | TGI (DU-145 prostate) [µM] | TGI (HOP-62 NSCLC) [µM] | TGI (HS 578T breast) [µM] | TGI (M14 melanoma) [µM] | TGI (MCF7 breast) [µM] | TGI (MDA-MB-231 breast) [µM] | TGI (NCI-H522 lung) [µM] | TGI (OVCAR-3 ovarian) [µM] | TGI (OVCAR-4 ovarian) [µM] | TGI (RXF 393 renal) [µM] | TGI (SF-295 CNS) [µM] | TGI (SF-539 CNS) [µM] | TGI (SK-OV-3 ovarian) [µM] | TGI (SN12C renal) [µM] | TGI (SNB-75 CNS) [µM] | TGI (U251 CNS) [µM] | TGI (CCRF-CEM leukemia) [µM] |
| --- | --- | --- | --- | --- | --- | --- | --- | --- | --- | --- | --- | --- | --- | --- | --- | --- | --- | --- | --- | --- |
| Cc1cc(=O)oc2cc(SC(=O)N(C)C)ccc12 | > 100 | > 100 | > 100 | > 100 | > 100 | > 100 | > 100 | > 100 | > 100 | > 100 | > 100 | > 100 | > 100 | > 100 | > 100 | > 100 | > 100 | > 100 | > 100 |  |
| CC(C)/C(Cl)=N/OC(=O)Nc1cccc(C(F)(F)F)c1 | 7.52 | 3.06 | 3.14 | 34.5 | 32.1 | > 69.4 | 13.3 | 16.5 | 17 | 0.951 | 8.12 | 16.6 | 18.9 | 33 |  | 31.7 | 20.1 | 21.2 | 31.3 | 13.8 |
| Cc1c(C#N)c(N)[nH]c(=S)c1C#N | > 100 | > 100 | > 100 | > 100 | > 100 | > 100 |  | > 100 | > 100 | > 100 | > 100 |  | > 100 | > 100 | > 100 |  | > 100 | > 100 | > 100 | > 100 |
| CC(C)(Br)C(Br)CCC(=CCBr)CBr (mixture of isomers) | 3.84 | 21.6 | 33.1 | 22.3 | 8.89 | 49.7 | 4.29 | 13.2 | 26.3 | 3.12 |  | 17 | 6.48 | 10.9 | 10.3 | 36.4 | 4.29 | 10.9 | 8.26 | 6.1 |
| NC1OC(COC(=O)c2ccccc2)C(O)C(OC(=O)c2ccccc2)C1OC(=O)c1ccccc1 (configuration not stated) | 30.3 | 56 |  | > 100 | 50.2 | 42.6 | 58.1 | 68.2 | 45.9 | 58.5 | 75.5 | > 100 | 31.3 | 33.6 |  | > 100 | 50.9 | 39.8 | 34.2 |  |
| Cc1n[n+](CC(=O)c2ccccc2)c2sc(N)nn12 | > 100 | > 100 | > 100 | > 100 | > 100 | > 100 | > 100 | > 100 | > 100 | > 100 | > 100 | > 100 | > 100 | > 100 |  | > 100 | > 100 | > 100 | > 100 | > 100 |
| NC(=O)NC(=O)CCC(NS(=O)(=O)c1ccccc1)C(=O)NC(N)=O (configuration not stated) | > 100 | > 100 | > 100 | > 100 | > 100 | > 100 | > 100 | > 100 | > 100 | > 100 | > 100 | > 100 |  | > 100 | > 100 | > 100 | > 100 | > 100 | > 100 | > 100 |
| CCOC(=O)N1CC2(C)C=CC1C(C(=O)OC)C2 (configuration not stated) | > 100 | > 100 | > 100 | > 100 | > 100 | > 100 | > 100 | > 100 | > 100 | > 100 | > 100 | > 100 | > 100 | > 100 |  | > 100 | > 100 | > 100 | > 100 | > 100 |
| CC1=CC=C2c3ccccc3C=CN2C(=O)C1 | > 100 | > 100 | > 100 | > 100 | > 100 | > 100 | > 100 | > 100 | > 100 | > 100 | > 100 | > 100 |  | > 100 | > 100 | > 100 | > 100 | > 100 | > 100 | > 100 |
| CC1C(=NO)C(C)C(c2ccccc2)N(N=O)C1c1ccccc1 (configuration not stated) | 42.7 | 45.7 |  | 90.8 | 41.6 | 36.7 | 29.5 | > 100 | 32.9 | 34.5 | 65.7 | 54.4 | 32.7 | 29.5 | 26.5 | 22.7 | 28.8 | 82 | 35.4 | 84.5 |
| CCc1n[nH]c(=O)n1N1C(=O)CCC1=O | > 100 | > 100 | > 100 | > 100 | > 100 | > 100 | > 100 | > 100 | > 100 | > 100 | > 100 | > 100 | > 100 | > 100 |  | > 100 | > 100 | > 100 | > 100 | > 100 |
| COc1ccc(/C=N/n2c(=O)[nH]c3ccccc3c2=O)cc1 | > 100 | > 100 | > 100 | > 100 | > 100 | > 100 | > 100 | > 100 | > 100 |  | > 100 |  |  | > 100 | > 100 | > 100 | > 100 | > 100 | > 100 | > 100 |
| O=c1[nH]c(=O)n(C2OC(CO)C(O)C2O)c2ncc(-c3ccc(-c4ccccc4)cc3)nc12 (configuration not stated) | > 20 | > 20 | > 20 | > 20 | > 20 | > 20 |  | > 20 | > 20 | > 20 |  | > 20 | > 20 | > 20 | > 20 | > 20 | > 20 | > 20 | > 20 | > 20 |
| CCOC(=O)CC(=O)C(=O)NNC1=NCCN1 | > 100 | > 100 |  | > 100 | > 100 | > 100 | > 100 | > 100 | > 100 | > 100 | > 100 | > 100 | > 100 | > 100 | > 100 | > 100 | > 100 | > 100 | > 100 | > 100 |
| CCOC(=O)/C(C=Nc1c(C)n(C)n(-c2ccccc2)c1=O)=C(/O)c1ccccc1 | > 100 | > 100 | > 100 | > 100 | > 100 | > 100 | > 100 | > 100 | > 100 | > 100 | > 100 | > 100 | > 100 | > 100 | > 100 | > 100 | > 100 |  | > 100 | > 100 |
| O=C(Nc1cccc(NC(=O)C(=O)C2CCC3=C(Sc4ccccc4N3)C2=O)n1)C(=O)C1CCC2=C(Sc3ccccc3N2)C1=O (configuration not stated) | > 100 | > 100 | > 100 | > 100 |  | > 100 | > 100 | > 100 | > 100 | > 100 | > 100 | 71.7 | > 100 | > 100 | 55.1 | > 100 | > 100 | 70.2 | > 100 | > 100 |
| CCOC(=O)[C@@H]1OC(c2ccccc2)O[C@H]1C(=O)OCC | > 100 | > 100 |  | > 100 | > 100 | > 100 | > 100 | > 100 | > 100 |  | > 100 | > 100 |  | > 100 |  | > 100 | > 100 | > 100 | > 100 | > 100 |
| Cn1c2c(c3ccccc31)CCN1OCC=C[C@@H](C(=O)O)[C@@H]21 | > 100 | > 100 | > 100 | > 100 | > 100 | > 100 | > 100 | > 100 | > 100 | > 100 | > 100 | > 100 | > 100 |  | > 100 | > 100 | > 100 | > 100 | > 100 |  |
| CCN1C(=S)n2cccc2C1CC(=O)c1ccc(Cl)cc1 (configuration not stated) | > 100 | > 100 | > 100 | > 100 | > 100 | > 100 | > 100 | > 100 | > 100 | > 100 | > 100 | > 100 | > 100 | > 100 |  | > 100 | > 100 | > 100 | > 100 |  |
| CCN(CC)C(=S)SNc1ccc(S(N)(=O)=O)cc1 | > 71 | > 100 | > 90.6 | > 100 | > 100 | > 100 | > 67.7 | > 100 | > 100 | 29.5 |  | > 100 | > 82.8 | > 100 | > 100 | > 100 | > 100 | > 100 | > 100 |  |
| COc1ccc(N=Nc2c(C)c(C#N)c(=S)n(C3OC(COC(C)=O)C(OC(C)=O)C(OC(C)=O)C3OC(C)=O)c2C)cc1 (configuration not stated) | 53 | > 100 | > 100 | > 100 | > 100 | 82 | > 100 | > 100 | 71 |  | > 100 | > 100 | > 100 | > 100 | > 100 | > 100 | > 100 | 42.6 |  | > 100 |
| CCOC(=O)CCC(NC(=O)OCc1ccccc1)C(=O)NC(CCC(=O)OCC)C(=O)NC(Cc1ccc([N+](=O)[O-])cc1)C(=O)NC(CCC(=O)OCC)C(=O)NC(CCC(=O)OCC)C(=O)OCC (configuration not stated) (Cbz-E(OEt)E(OEt)[Phe(4-NO2)]E(OEt)E(OEt)-OEt; configuration not given here) | > 100 | > 100 | > 100 | > 100 | > 100 | > 100 |  | > 100 | > 100 | > 100 |  | > 100 | > 100 | > 100 |  | > 100 | > 100 | > 100 | > 100 | > 100 |
| C=CCOc1ccc(/C(N=Nc2ccc(C)cc2)=N/NC(=O)c2ccccc2)cc1OC | > 100 | > 100 | > 100 | > 100 | > 100 | 87.6 | 58.3 | 83.6 | > 100 | 49.6 | > 100 | > 100 |  | > 100 |  |  | > 100 | 65.6 | > 100 | 41.1 |
| CCCCCN1CCN(c2ncccn2)CC1 | > 100 | > 100 | > 100 | > 100 | > 100 | > 100 | > 100 | > 100 | > 100 | > 100 | > 100 | > 100 | > 100 | > 100 | > 100 |  | > 100 | > 100 | > 100 | > 100 |
| C=C(C)CNC(=S)N(N)c1ccc(OC)cc1 | > 100 | > 100 |  | > 100 | > 100 | > 100 | > 100 | > 100 | > 100 | > 100 | > 100 | > 100 | > 100 | > 100 | > 100 | > 100 | > 100 | > 100 | > 100 | > 100 |

Reference: PubChem BioAssay (NCI)
